In US8741836B2, “Polypeptides” (Novo Nordisk A/S, priority 2011, dated 2014):
Starred links: 1 amine or outer side, 2 acyl side, 3 side chain; linkers in the order of their positions; H or OH if unused. Positions of bridges follow the written chain, without caps; N, C: chain ends. Residues, ends and D or L forms follow the SMILES beside them. *: point of attachment. C20 diacid = O=C(O)CCCCCCCCCCCCCCCCCCC(=O)*; C18 diacid = O=C(O)CCCCCCCCCCCCCCCCC(=O)*; γGlu = O=C(O)[C@H](CCC(=O)[*:2])N[*:1]

Assay: Assay (III) ThT fibrillation assay for physical stability
Format: physicochemical
Settings: for ThT pH 4.0 lag time: pH 4.0, ThT fibrillation assay
Summary of the method: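 Freshly prepared, pH-adjusted formulations with 1 μM ThT incubated at 37 °C under 960 rpm orbital shaking (1 mm), fluorescence (ex 444, em 485 nm) read every 20 min. […] Peptide content before and after measured by reverse-phase HPLC against pramlintide standard.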

Compound | ThT pH 4.0 lag time [h] | ThT pH 4.0 lag time (physical stability in fibrillogenesis assay) [h]
CC[C@H](C)[C@H](NC(=O)[C@@H]1CCCN1C(=O)CNC(=O)[C@H](Cc1ccccc1)NC(=O)[C@H](CC(N)=O)NC(=O)[C@H](CC(N)=O)NC(=O)[C@H](CO)NC(=O)[C@H](CO)NC(=O)[C@H](Cc1c[nH]cn1)NC(=O)[C@H](Cc1c[nH]cn1)NC(=O)[C@H](CC(C)C)NC(=O)[C@H](Cc1ccccc1)NC(=O)[C@H](CCC(=O)O)NC(=O)[C@H](C)NC(=O)[C@H](CC(C)C)NC(=O)[C@H](CCCNC(=N)N)NC(=O)[C@H](CCC(N)=O)NC(=O)[C@@H](NC(=O)[C@H](C)NC(=O)[C@@H]1CSSC[C@H](NC(=O)[C@H](CCCCN)NC(=O)CC[C@H](NC(=O)CCCCCCCCCCCCCCCCCCC(=O)O)C(=O)O)C(=O)N[C@@H](CC(N)=O)C(=O)N[C@@H]([C@@H](C)O)C(=O)N[C@@H](C)C(=O)N[C@@H]([C@@H](C)O)C(=O)N1)[C@@H](C)O)C(=O)N[C@@H](CC(C)C)C(=O)N1CCC[C@H]1C(=O)N1CCC[C@H]1C(=O)N[C@H](C(=O)N[C@@H](CC(N)=O)C(=O)N[C@H](C(=O)NCC(=O)N[C@@H](CO)C(=O)N[C@@H](CCC(N)=O)C(=O)N[C@H](C(=O)N1CCC[C@H]1C(N)=O)[C@@H](C)O)C(C)C)[C@@H](C)O [Example 135, N-alpha-[(S)-4-Carboxy-4-(19-carboxynonadecanoylamino)butyryl]-[Glu14,His17,Gln35,Pro37]-pramlintide] ({C20 diacid-γGlu}-KCNTATCATQRLAEFLHHSSNNFGPILPPTNVGSQTP-NH2; disulfide 2-7) | >45 | >45
CC[C@H](C)[C@H](NC(=O)[C@@H]1CCCN1C(=O)CNC(=O)[C@H](Cc1ccccc1)NC(=O)[C@H](CC(N)=O)NC(=O)[C@H](CC(N)=O)NC(=O)[C@H](CO)NC(=O)[C@H](CO)NC(=O)[C@H](Cc1c[nH]cn1)NC(=O)[C@H](CCCNC(=N)N)NC(=O)[C@H](CC(C)C)NC(=O)[C@H](Cc1ccccc1)NC(=O)[C@H](CCC(=O)O)NC(=O)[C@H](C)NC(=O)[C@H](CC(C)C)NC(=O)[C@H](CCCNC(=N)N)NC(=O)[C@H](CCC(N)=O)NC(=O)[C@@H](NC(=O)[C@H](C)NC(=O)[C@@H]1CSSC[C@H](NC(=O)[C@H](CCCCN)NC(=O)CC[C@H](NC(=O)CCCCCCCCCCCCCCCCCCC(=O)O)C(=O)O)C(=O)N[C@@H](CC(N)=O)C(=O)N[C@@H]([C@@H](C)O)C(=O)N[C@@H](C)C(=O)N[C@@H]([C@@H](C)O)C(=O)N1)[C@@H](C)O)C(=O)N[C@@H](CC(C)C)C(=O)N1CCC[C@H]1C(=O)N1CCC[C@H]1C(=O)N[C@H](C(=O)N[C@@H](CC(N)=O)C(=O)N[C@H](C(=O)NCC(=O)N[C@@H](CO)C(=O)N[C@@H](Cc1cnc[nH]1)C(=O)N[C@H](C(=O)N[C@@H](Cc1ccc(O)cc1)C(N)=O)[C@@H](C)O)C(C)C)[C@@H](C)O [Example 57, N-alpha-[(S)-4-Carboxy-4-(19-carboxynonadecanoylamino)butyryl]-[Glu14,Arg17,His35]-pramlintide] ({C20 diacid-γGlu}-KCNTATCATQRLAEFLRHSSNNFGPILPPTNVGSHTY-NH2; disulfide 2-7) | – | >45
CC[C@H](C)[C@H](NC(=O)[C@@H]1CCCN1C(=O)CNC(=O)[C@H](Cc1ccccc1)NC(=O)[C@H](CC(N)=O)NC(=O)[C@H](CCC(N)=O)NC(=O)[C@H](CO)NC(=O)[C@H](CO)NC(=O)[C@H](Cc1c[nH]cn1)NC(=O)[C@H](Cc1c[nH]cn1)NC(=O)[C@H](CC(C)C)NC(=O)[C@H](Cc1ccccc1)NC(=O)[C@H](CCC(=O)O)NC(=O)[C@H](C)NC(=O)[C@H](CC(C)C)NC(=O)[C@H](CCCNC(=N)N)NC(=O)[C@H](CCC(N)=O)NC(=O)[C@@H](NC(=O)[C@H](C)NC(=O)[C@@H]1CSSC[C@H](NC(=O)CNC(=O)CC[C@H](NC(=O)CCCCCCCCCCCCCCCCCCC(=O)O)C(=O)O)C(=O)N[C@@H](CC(N)=O)C(=O)N[C@@H]([C@@H](C)O)C(=O)N[C@@H](C)C(=O)N[C@@H]([C@@H](C)O)C(=O)N1)[C@@H](C)O)C(=O)N[C@@H](CC(C)C)C(=O)N1CCC[C@H]1C(=O)N1CCC[C@H]1C(=O)N[C@H](C(=O)N[C@@H](CC(N)=O)C(=O)N[C@H](C(=O)NCC(=O)N[C@@H](CO)C(=O)N[C@@H](CCC(N)=O)C(=O)N[C@H](C(=O)N1CCC[C@H]1C(N)=O)[C@@H](C)O)C(C)C)[C@@H](C)O [Example 137, N-alpha-[(S)-4-Carboxy-4-(19-carboxynonadecanoylamino)butyryl]-[Gly1,Glu14,His17,Gln21,Gln35,Pro37]-pramlintide] ({C20 diacid-γGlu}-GCNTATCATQRLAEFLHHSSQNFGPILPPTNVGSQTP-NH2; disulfide 2-7 (inferred)) | 29 | –

Results, then the compound that gave them:

ThT pH 4.0 lag time [h] | ThT pH 4.0 lag time (physical stability in fibrillogenesis assay) [h] | Compound
>45 | – | CC[C@H](C)[C@H](NC(=O)[C@@H]1CCCN1C(=O)CNC(=O)[C@H](Cc1ccccc1)NC(=O)[C@H](CC(N)=O)NC(=O)[C@H](CC(=O)O)NC(=O)[C@H](CO)NC(=O)[C@H](CO)NC(=O)[C@H](Cc1c[nH]cn1)NC(=O)[C@H](Cc1c[nH]cn1)NC(=O)[C@H](CC(C)C)NC(=O)[C@H](Cc1ccccc1)NC(=O)[C@H](CCC(=O)O)NC(=O)[C@H](C)NC(=O)[C@H](CC(C)C)NC(=O)[C@H](CCCNC(=N)N)NC(=O)[C@H](CCC(N)=O)NC(=O)[C@@H](NC(=O)[C@H](C)NC(=O)[C@@H]1CSSC[C@H](NC(=O)[C@H](CCCCN)NC(=O)CC[C@H](NC(=O)CCCCCCCCCCCCCCCCCCC(=O)O)C(=O)O)C(=O)N[C@@H](CC(N)=O)C(=O)N[C@@H]([C@@H](C)O)C(=O)N[C@@H](C)C(=O)N[C@@H]([C@@H](C)O)C(=O)N1)[C@@H](C)O)C(=O)N[C@@H](CC(C)C)C(=O)N1CCC[C@H]1C(=O)N1CCC[C@H]1C(=O)N[C@H](C(=O)N[C@@H](CC(N)=O)C(=O)N[C@H](C(=O)NCC(=O)N[C@@H](CO)C(=O)N[C@@H](Cc1c[nH]cn1)C(=O)N[C@H](C(=O)N[C@@H](Cc1ccc(O)cc1)C(N)=O)[C@@H](C)O)C(C)C)[C@@H](C)O [Example 128, N-alpha-[(S)-4-Carboxy-4-(19-carboxynonadecanoylamino)butyryl]-[Glu14,His17,Asp21,His35]-pramlintide] ({C20 diacid-γGlu}-KCNTATCATQRLAEFLHHSSDNFGPILPPTNVGSHTY-NH2; disulfide 2-7)
>45 | – | CC[C@H](C)[C@H](NC(=O)[C@@H]1CCCN1C(=O)CNC(=O)[C@H](Cc1ccccc1)NC(=O)[C@H](CC(N)=O)NC(=O)[C@H](CC(N)=O)NC(=O)[C@H](CO)NC(=O)[C@H](CO)NC(=O)[C@H](Cc1c[nH]cn1)NC(=O)[C@H](Cc1c[nH]cn1)NC(=O)[C@H](CC(C)C)NC(=O)[C@H](Cc1ccccc1)NC(=O)[C@H](CCC(=O)O)NC(=O)[C@H](C)NC(=O)[C@H](CC(C)C)NC(=O)[C@H](CCCNC(=N)N)NC(=O)[C@H](CCC(N)=O)NC(=O)[C@@H](NC(=O)[C@H](C)NC(=O)[C@@H]1CSSC[C@H](NC(=O)[C@H](CCCCN)NC(=O)[C@H](Cc2c[nH]cn2)NC(=O)CC[C@H](NC(=O)CCCCCCCCCCCCCCCCC(=O)O)C(=O)O)C(=O)N[C@@H](CC(N)=O)C(=O)N[C@@H]([C@@H](C)O)C(=O)N[C@@H](C)C(=O)N[C@@H]([C@@H](C)O)C(=O)N1)[C@@H](C)O)C(=O)N[C@@H](CC(C)C)C(=O)N1CCC[C@H]1C(=O)N1CCC[C@H]1C(=O)N[C@H](C(=O)N[C@@H](CC(N)=O)C(=O)N[C@H](C(=O)NCC(=O)N[C@@H](CO)C(=O)N[C@@H](Cc1c[nH]cn1)C(=O)N[C@H](C(=O)N[C@@H](Cc1ccc(O)cc1)C(N)=O)[C@@H](C)O)C(C)C)[C@@H](C)O [Example 70, N-alpha-[(S)-4-Carboxy-4-(17-carboxyheptadecanoylamino)butyryl]-His-[Glu14,His17,His35]-pramlintide] ({C18 diacid-γGlu}-HKCNTATCATQRLAEFLHHSSNNFGPILPPTNVGSHTY-NH2; disulfide 3-8 (inferred))
>45 | – | CC[C@H](C)[C@H](NC(=O)[C@@H]1CCCN1C(=O)CNC(=O)[C@H](Cc1ccccc1)NC(=O)[C@H](CC(N)=O)NC(=O)[C@H](CC(N)=O)NC(=O)[C@H](CO)NC(=O)[C@H](CO)NC(=O)[C@H](CCCNC(=N)N)NC(=O)[C@H](Cc1c[nH]cn1)NC(=O)[C@H](CC(C)C)NC(=O)[C@H](Cc1ccccc1)NC(=O)[C@H](CCC(=O)O)NC(=O)[C@H](C)NC(=O)[C@H](CC(C)C)NC(=O)[C@H](CCCNC(=N)N)NC(=O)[C@H](CCC(N)=O)NC(=O)[C@@H](NC(=O)[C@H](C)NC(=O)[C@@H]1CSSC[C@H](NC(=O)[C@H](CCCCN)NC(=O)CC[C@H](NC(=O)CCCCCCCCCCCCCCCCCCC(=O)O)C(=O)O)C(=O)N[C@@H](CC(N)=O)C(=O)N[C@@H]([C@@H](C)O)C(=O)N[C@@H](C)C(=O)N[C@@H]([C@@H](C)O)C(=O)N1)[C@@H](C)O)C(=O)N[C@@H](CC(C)C)C(=O)N1CCC[C@H]1C(=O)N1CCC[C@H]1C(=O)N[C@H](C(=O)N[C@@H](CC(N)=O)C(=O)N[C@H](C(=O)NCC(=O)N[C@@H](CO)C(=O)N[C@@H](Cc1c[nH]cn1)C(=O)N[C@H](C(=O)N[C@@H](Cc1ccc(O)cc1)C(N)=O)[C@@H](C)O)C(C)C)[C@@H](C)O [Example 78, N-alpha-[(S)-4-Carboxy-4-(19-carboxynonadecanoylamino)butyryl]-[Glu14,His17,Arg18,His35]-pramlintide] ({C20 diacid-γGlu}-KCNTATCATQRLAEFLHRSSNNFGPILPPTNVGSHTY-NH2; disulfide 2-7 (inferred))
